Test results published in publication PMC11003968, “Identification of small molecules affecting the interaction between human hemoglobin and Staphylococcus aureus IsdB hemophore” (Scientific Reports, 2024).
Converted amounts (≈) assume the structure as drawn. “Also recorded” adds a separate entry of the source. Where two headings read alike, the source gives them in different places. Where a SMILES comes first, the peptide text is derived from it. The star is where a group is joined. Boc = CC(C)(C)OC(=O)*

How the values were obtained:
oxyHb = oxyHb (Homo sapiens, UniProt P68871+P69905); experiment: Effect of compounds on the oxyHb absorption spectrum (oxidation of oxyHb to metHb); assay type: biochemical; conditions: 1 mM compound, 10 µM oxyHb, 4 °C
Experimental: Absorption spectra of the commercial compounds alone or in the presence of oxyHb were recorded with a microplate reader (TECAN Spark® 10 M) in a 384-well, UV-transparent microplate (Greiner UV-STAR® plate—781801). The compounds were diluted in binding buffer to a 2 mM concentration, and the pH of the solutions was adjusted in the range 6.5–7.5. Compounds were then tested at 1 mM concentration to assess for any absorbance around 450 nm that might interfere with the immunoassay. The effect of compounds on the oxyHb spectrum was assessed under the same conditions in the presence of 10 µM oxyHb. […] All the incubation steps were performed at 4 °C, as in the immunoassay. Spectra were subtracted from the contribution of the blank and the compound.
Absorption spectra of the compounds in solution were collected between 350 and 700 nm to exclude any interference with the determination of Hb oxidation (vide infra) and with the absorbance measurement at 450 nm of the immunoassay (Fig. S4). The absorption spectra of Hb solutions were collected in the Q bands region, between 450 and 650 nm, and compounds were added at a final concentration of 1 mM and incubated for 2 h at 4 °C, before the acquisition of the final spectrum (Fig. S5). These Hb absorption bands are sensitive to the redox status of the protein and thus allowed to ascertain whether the tested compounds interfere with the analysis by accelerating the oxidation of oxyHb to metHb, which in turn is susceptible to heme extraction by IsdB, thus introducing an artifact in the assay.

Compound solubilisation = assay type: physicochemical; conditions: for solubility (in words): solvent as stated in the sentence
Experimental: The commercial compounds were solubilized in aqueous solutions to reach a 50 mM concentration, taking advantage of the pH and concentration-solubility profile estimated by Chemicalize (https://chemicalize.com/ developed by ChemAxon). When the molecules resulted partially or completely insoluble, the pH was adjusted based on their estimated pH-solubility profiles using either HCl or NaOH concentrated stocks. A cycle of sonication with an ultrasonic bath (Bormac CE-5700, 41300303) was performed for those compounds that resulted insoluble after pH adjustment. If sonication was insufficient, compounds were also heated in a thermoblock at 60 °C for ten minutes. For the compounds that were still not soluble, D6-DMSO was added. For some compounds, complete solubilization required to decrease the concentration of the stock solution. In Table 2 are reported the compounds that required dilution and/or addition of DMSO for solubilization.
(§1) The in-house synthesized compounds were solubilized at 100 mM concentration in D6-DMSO. We indicated with an asterisk (*) the in-house synthesized compounds to distinguish them from the commercial ones. […]. Molecules that resulted partially or completely insoluble were subjected to the same procedure followed for the commercial molecules, except for pH adjustments. The compounds that were highly insoluble were produced as TRIS salts.

[1] = Stability of dissolved compound by NMR and liquid chromatography; assay type: physicochemical
Experimental: as §1

[2] = molecular target: T1, IsdB:Hb complex (Y165A IsdB, oxyHb) (Homo sapiens, UniProt P68871+P69905); experiment: IsdB-based immunoassay for IsdB:Hb complex formation (screening of potential inhibitors); assay type: binding, Staphylococcus aureus IsdB; human Hb; conditions: 30 µM oxyHb; for average percent of Hb bound to IsdB: commercial compounds at 1 mM, relative to negative control; for percentage of IsdB-bound Hb: in-house synthesized compounds at 1 mM
T1 construct: made in house
Experimental: Commercial and synthesized compounds were tested at 1 mM concentration.
Figure 6 Screening of the in silico identified compounds by the IsdB-based immunoassay. […] The lines at 100% and 50%, drawn as reference, were calculated from the absorbance signal at 450 nm measured on the negative control well (i.e. oxyHb incubated without the addition of compounds). Each measurement is the average of at least 2 replicates.
Each measurement is the average of at least two replicates. […] Color code indicates derivatives from a common parent compound indicated with the asterisk.

HbCO = HbCO (Homo sapiens, UniProt P68871+P69905); experiment: STD-NMR binding to Hb; conditions: 20 µM Hb (heme), 25 °C; for quality of the peaks in the STD spectrum: 1 mM commercial compound; for binding to HbCO by STD-NMR (peaks in STD spectra): 1 mM compound
[3] = 50% D6-DMSO final concentration

NC(=O)C1CCN(CC(O)COc2ccc(OCC(O)CN3CCC(C(N)=O)CC3)cc2)CC1 (centres unmarked) [Compound C12]
oxidation of Hb upon a 2-h incubation (oxyHb): small effects

NNC(=O)C(=NNc1ccccc1C(=O)NN)C(=O)NN [Compound C17]
Stock H2O (Compound solubilisation; [3]): 25 (50% D6-DMSO final concentration) mM
oxidation of Hb upon a 2-h incubation (oxyHb): small effects

CC(C)CC(NC(=O)C(Cc1ccccc1)NC(=O)CNC(=O)CNC(=O)OC(C)(C)C)C(=O)NC(CCCN=C(N)N)C(=O)O (centres unmarked) [Compound C28] (Boc-GGFLR-OH; configuration not given here)
Stock H2O (Compound solubilisation; [3]): 25 (50% D6-DMSO final concentration) mM
oxidation of Hb upon a 2-h incubation (oxyHb): small effects

NC(=O)Cn1cc(NC(=O)NC2CCC(O)CC2)cn1 (centres unmarked) [Compound C34]
Stock H2O (Compound solubilisation): 33 (50% D6-DMSO final concentration) mM

O=C(CSc1nnc(-c2c[nH]c3ccccc23)o1)Nc1ccc(C(=O)O)cc1 [Compound C35]
solubility (Compound solubilisation; aqueous buffer, kinetic from dmso stock, 50 mM HEPES buffer, pH 7.6, diluted from 100 mM DMSO stock, read-out: concentration at which the compound was soluble): 500 µM (≈ 197 µg/mL)
solubility (in words) (Compound solubilisation): poorly soluble in water
stability by NMR and liquid chromatography ([1]; dissolved in D6-DMSO): stable
stability in solution ([1]; dissolved in alkaline aqueous solution): underwent a rearrangement

Cc1[nH]ncc1C(=O)NCc1cc(OC2CCNC2)ccn1 (centres unmarked) [Compound C41]
average percent of Hb bound to IsdB [2]: lower than 55%
quality of the peaks in the STD spectrum (HbCO): very weak peaks
binding to HbCO by STD-NMR (peaks in STD spectra) (HbCO): gave peaks in the STD spectra; also recorded: only a methyl group was binding to Hb

NC(=O)NC(=O)CCCSc1nnc(N)s1 [Compound C44]
average percent of Hb bound to IsdB [2]: lower than 55%
percentage of IsdB-bound Hb [2]: above 60%
Stock H2O (Compound solubilisation; [3]): 44 (50% D6-DMSO final concentration) mM
solubility (in words) (Compound solubilisation): solubility issues
solubility (in words) (Compound solubilisation; listed as C44*): difficult to dissolve in DMSO
quality of the peaks in the STD spectrum (HbCO): very weak peaks
binding to HbCO by STD-NMR (peaks in STD spectra) (HbCO): gave peaks in the STD spectra

NC(=O)COc1ccc(CNC2CCCN(c3cccnn3)C2)cc1 (centres unmarked) [Compound C50]
average percent of Hb bound to IsdB [2]: lower than 55%
binding to HbCO by STD-NMR (peaks in STD spectra) (HbCO): no peaks were observed

COC(=O)c1[nH]n(-c2ccc(C(=O)O)cc2)c(=O)c1CCO [Compound C53]
average percent of Hb bound to IsdB [2]: lower than 55%
percentage of IsdB-bound Hb [2]: above 60%
solubility (in words) (Compound solubilisation): solubility issues
quality of the peaks in the STD spectrum (HbCO): very weak peaks
binding to HbCO by STD-NMR (peaks in STD spectra) (HbCO): gave peaks in the STD spectra
binding to HbCO by STD-NMR (peaks in STD spectra) (HbCO; listed as C53*): confirmed binding to HbCO

CC(C)(Sc1nnc(-c2c[nH]c3ccccc23)o1)C(=O)Nc1ccc(C(=O)O)cc1 [Compound C59]
solubility (in words) (Compound solubilisation): poorly soluble

Cn1cc(-c2nnc(SCC(=O)Nc3ccc(C(=O)O)cc3)o2)c2ccccc21 [Compound C61]
solubility (in words) (Compound solubilisation): poorly soluble

O=C(CSc1nnc(-c2c[nH]c3ncccc23)o1)Nc1ccc(C(=O)O)cc1 [Compound C63]
solubility (in words) (Compound solubilisation): poorly soluble

O=C(O)Cn1cc(-c2nnc(SCC(=O)Nc3ccc(C(=O)O)cc3)o2)c2ccccc21 [Compound C65]
solubility (in words) (Compound solubilisation): poorly soluble
